Among the data in PMC6849653, “Volasertib preclinical activity in high-risk hepatoblastoma” (Oncotarget, 2019) are IC50 values, retold here.

Holding throughout (type): cell-based
The subject of one experiment is normal human hepatocytes. The experiment in a line: 60-agent chemical screen, cell viability (Cell-Titer Glo), hepatocytes.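 Also: cells were plated onto pre-diluted drug concentrations in 384-well plates, and viability was read after 72 h as CellTiter-Glo 2.0 luminescence.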 The conditions noted are these: Hepatocyte, 60-agent screen, 72 hours, a value of 10,000 indicates that the drug did not inhibit viability, read-out: absolute IC50, Hepatocytes.
Another experiment concerns HepG2. The experiment in a line: 60-agent chemical screen, cell viability (Cell-Titer Glo), HepG2.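 Also: luminescence read-out in 384-well plates, with cells plated directly onto drug dilutions of known concentration.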 The conditions noted are these: Homo sapiens, 60-agent screen, 72 hours, a value of 10,000 indicates that the drug did not inhibit viability, read-out: absolute IC50, HepG2.
The test system of another experiment is Huh-6. As to the kind of experiment: 60-agent chemical screen, cell viability (Cell-Titer Glo), Huh-6. The following applies: Homo sapiens, 60-agent screen, 72 hours, a value of 10,000 indicates that the drug did not inhibit viability, read-out: absolute IC50, Huh-6.
The next experiment relates to HB-214. The experiment in a line: 60-agent chemical screen, cell viability (Cell-Titer Glo), HB-214.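 Also: viability read as luminescence once Cell-Titer Glo 2.0 reagent was added to drug-treated cells in 384-well plates.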 The following applies: Homo sapiens; 60-agent screen, 72 hours; a value of 10,000 indicates that the drug did not inhibit viability; read-out: absolute IC50, HB-214.

Where a name gives a salt, the structure may show the parent alone.

Protocol for HB-214: (§1) On day 0, cells were trypsinized and plated into a white walled 384-well plate containing pre-diluted known concentrations of various drugs. After 72 hours, an equal volume of Cell-Titer Glo 2.0 (G9243, Promega) was added to each well, incubated at room temperature while rocking in the dark for 15 minutes, followed by luminescence acquisition with a BioTek Synergy HT plate reader (BioTek, Winooski, VT).
Protocol for HepG2: as §1
Protocol for Huh-6: as §1
Protocol for normal human hepatocytes: as §1

Consider `CC1(C)CCC(c2ccc(Cl)cc2)=C(CN2CCN(c3ccc(C(=O)NS(=O)(=O)c4ccc(N[C@H](CCN5CCOCC5)CSc5ccccc5)c(S(=O)(=O)C(F)(F)F)c4)cc3)CC2)C1` [ABT-263], for which the IC50 with normal human hepatocytes, in the experiment with HepG2, in the experiment on Huh-6 and with HB-214 was greater than 10 µM in each case.

Take `CNC(=O)CN1CCC(Oc2cc3c(Nc4cccc(Cl)c4F)ncnc3cc2OC)CC1` [AZD8931]: the half-inhibitory concentration (IC50) with normal human hepatocytes is 1.45 µM; in the experiment with HepG2, greater than 10 µM; in the experiment on Huh-6, greater than 10 µM; with HB-214, greater than 10 µM.

Consider `Cn1c(=O)n(-c2ccc(C(C)(C)C#N)cc2)c2c3cc(-c4cnc5ccccc5c4)ccc3ncc21` [BEZ235], for which the IC50 in the experiment on normal human hepatocytes is 0.048 µM; with HepG2 it was 0.478 µM; in the experiment with Huh-6 it was greater than 10 µM; in the experiment on HB-214 it was 0.61 µM.

For the molecule `COc1cc2nc(N3CCCN(C)CC3)nc(NC3CCN(Cc4ccccc4)CC3)c2cc1OC` [BIX 01294], the IC50 in the experiment with normal human hepatocytes was 2.04 µM; in the experiment on HepG2 it was 2.9 µM; with Huh-6 it was 2.81 µM; with HB-214, 1.72 µM.

In the case of `O=C(O)c1ccc2c(c1)nc(Nc1cccc(Cl)c1)c1ccncc12` [CX-4945], the concentration for half-maximal inhibition (IC50) in the experiment with normal human hepatocytes was greater than 10 µM; in the experiment on HepG2, 6.2 µM; in the experiment on Huh-6 it was 4.81 µM; with HB-214, greater than 10 µM.

Regarding `COc1ccc(C[C@@H](C)[C@@H](C)Cc2ccc(OC)c(OC)c2)cc1OC` [EM1421], the IC50 in the experiment with normal human hepatocytes, in the experiment with HepG2, in the experiment on Huh-6 and with HB-214 was greater than 10 µM each time.

As to `CCOC(=O)CCNc1cc(N2CCc3ccccc3CC2)nc(-c2ccccn2)n1` [GSK-J4 HCl], the IC50 in the experiment with normal human hepatocytes is greater than 10 µM; with HepG2, greater than 10 µM; in the experiment with Huh-6, 4.8 µM; in the experiment on HB-214, greater than 10 µM.

For `CC(C)n1nc(-c2ccc3oc(N)nc3c2)c2c(N)ncnc21` [INK 128], the IC50 was found to be 0.007 µM with normal human hepatocytes, 0.126 µM in the experiment on HepG2, 2.43 µM with Huh-6 and 0.001 µM in the experiment with HB-214.

Consider `CN[C@@H](C)C(=O)N[C@H](C(=O)N1CCC[C@H]1c1nc(C(=O)c2ccc(F)cc2)cs1)C1CCCCC1` [LCL161], for which the half-maximal inhibitory concentration (IC50) in the experiment on normal human hepatocytes, in the experiment with HepG2, in the experiment with Huh-6 and with HB-214 was greater than 10 µM each time.

Turning to `Cc1cc(-c2ncc(CC(=O)Nc3ccc(-c4cnccn4)cn3)cc2C)ccn1` [LGK974], the IC50 was 7.72 µM in the experiment on normal human hepatocytes, greater than 10 µM with HepG2, greater than 10 µM with Huh-6 and greater than 10 µM with HB-214.

Regarding `CCCc1c(OCCCOc2cc(O)c(-c3ccc(F)cc3)cc2CC)cccc1Oc1ccccc1C(=O)O` [LY293111], the IC50 with normal human hepatocytes, in the experiment with HepG2, with Huh-6 and with HB-214 was greater than 10 µM throughout.

Regarding `O=C1NC(=O)C(c2cnc3ccccn23)=C1c1cn2c3c(cc(F)cc13)CN(C(=O)N1CCCCC1)CC2` [LY2090314], the half-maximal inhibitory concentration (IC50) with normal human hepatocytes is 0.837 µM; with HepG2 it was greater than 10 µM; in the experiment with Huh-6, greater than 10 µM; in the experiment on HB-214, greater than 10 µM.

Turning to `CC(C)(C)Cn1c(N)nc2ccc(-c3[nH]c(C(C)(C)C)nc3-c3ccc(F)cc3)nc21` [LY2228820], the IC50 in the experiment on normal human hepatocytes was 0.076 µM; in the experiment with HepG2, greater than 10 µM; in the experiment with Huh-6, greater than 10 µM; in the experiment on HB-214, greater than 10 µM.

As for `COc1cccc(OCCCN)c1-c1cc(Nc2cnc(C#N)cn2)n[nH]1` [LY2606368], the IC50 in the experiment on normal human hepatocytes is greater than 10 µM; in the experiment with HepG2, 5.4 µM; in the experiment with Huh-6 it was 5.27 µM; in the experiment on HB-214, 4.7 µM.

For `C[C@@H](Oc1ccc2[nH]nc(/C=C/c3cnn(CCO)c3)c2c1)c1c(Cl)cncc1Cl` [LY2874455], the concentration for half-maximal inhibition (IC50) with normal human hepatocytes was 2.17 µM; in the experiment with HepG2, greater than 10 µM; with Huh-6, greater than 10 µM; with HB-214, greater than 10 µM.

On to `CN(C(=O)c1ccc(F)cc1C(F)(F)F)C1CCN(c2nnc(-c3ccnn3C)c3ccccc23)CC1` [LY2940680], for which the IC50 in the experiment on normal human hepatocytes, in the experiment with HepG2, with Huh-6 and with HB-214 was greater than 10 µM throughout.

As to `C=CCn1c(=O)c2cnc(Nc3ccc(N4CCN(C)CC4)cc3)nc2n1-c1cccc(C(C)(C)O)n1` [MK-1775], the concentration for half-maximal inhibition (IC50) was greater than 10 µM with normal human hepatocytes, greater than 10 µM with HepG2, greater than 10 µM with Huh-6 and 1.18 µM in the experiment with HB-214.

Take `C[C@]1(O)C[C@@H](c2nc(-c3ccc4ccc(-c5ccccc5)nc4c3)c3c(N)nccn32)C1` [OSI-906]: the IC50 in the experiment with normal human hepatocytes was 5.9 µM; in the experiment on HepG2, greater than 10 µM; in the experiment on Huh-6 it was greater than 10 µM; in the experiment on HB-214, 1.8 µM.

On to `CC(=O)c1c(C)c2cnc(Nc3ccc(N4CCNCC4)cn3)nc2n(C2CCCC2)c1=O` [PD 0332991], for which the IC50 was greater than 10 µM with normal human hepatocytes, 6.07 µM in the experiment with HepG2, greater than 10 µM with Huh-6 and 1.89 µM in the experiment on HB-214.

For the molecule `CC(C)(C(=O)NCC(F)(F)C(F)(F)F)C(=O)N[C@@H]1C(=O)Nc2ccccc2-c2ccccc21` [RO4929097], the IC50 in the experiment with normal human hepatocytes, in the experiment on HepG2, in the experiment on Huh-6 and with HB-214 was greater than 10 µM in each case.

On to `CCOc1cc(C(C)(C)C)ccc1C1=N[C@@](C)(c2ccc(Cl)cc2)[C@@](C)(c2ccc(Cl)cc2)N1C(=O)N1CCN(CCCS(C)(=O)=O)CC1` [RO5045337], for which the IC50 in the experiment on normal human hepatocytes was greater than 10 µM; in the experiment with HepG2 it was greater than 10 µM; with Huh-6, greater than 10 µM; in the experiment with HB-214 it was 4.15 µM.

As to `CC(C)N(CCCNC(=O)Nc1ccc(C(C)(C)C)cc1)C[C@H]1O[C@@H](n2cc(Br)c3c(N)ncnc32)[C@H](O)[C@@H]1O` [SGC0946], the half-maximal inhibitory concentration (IC50) with normal human hepatocytes was 0.51 µM; in the experiment on HepG2 it was 6.39 µM; in the experiment on Huh-6, 1.56 µM; in the experiment on HB-214, greater than 10 µM.

On to `CN1CCC(CNc2ccc3ncc(-c4cccc(OC(F)(F)F)c4)n3n2)CC1` [SGI-1776], for which the IC50 amounted to 0.233 µM with normal human hepatocytes, 1.72 µM with HepG2, 4.62 µM in the experiment with Huh-6 and 1.53 µM in the experiment with HB-214.

For `COCCn1c2c([n+](Cc3cnccn3)c1C)C(=O)c1ccccc1C2=O` [YM155], the half-maximal inhibitory concentration (IC50) with normal human hepatocytes is 0.034 µM; in the experiment on HepG2 it was 0.124 µM; in the experiment on Huh-6, 4.47 µM; with HB-214, 0.26 µM.

As to `Cc1ccc(-c2cc(C(F)(F)F)nn2-c2ccc(S(N)(=O)=O)cc2)cc1` [celecoxib], the IC50 in the experiment with normal human hepatocytes, in the experiment on HepG2, in the experiment on Huh-6 and in the experiment with HB-214 was greater than 10 µM each time.

On to `C[C@@H](Oc1cc(-c2cnn(C3CCNCC3)c2)cnc1N)c1c(Cl)ccc(F)c1Cl` [crizotinib], for which the IC50 in the experiment with normal human hepatocytes came to 2.16 µM; in the experiment on HepG2 it was 2.17 µM; with Huh-6 it was 4.42 µM; with HB-214, 7.64 µM.

Take `Cc1nc(Nc2ncc(C(=O)Nc3c(C)cccc3Cl)s2)cc(N2CCN(CCO)CC2)n1` [dasatinib]: the IC50 was greater than 10 µM in the experiment with normal human hepatocytes, 5.02 µM in the experiment on HepG2, 2.62 µM with Huh-6 and greater than 10 µM in the experiment with HB-214.

`CCc1cnn2c(NCc3ccc[n+]([O-])c3)cc(N3CCCC[C@H]3CCO)nc12` [dinaciclib]: in the experiment with normal human hepatocytes, the IC50 was 0.001 µM.

In the case of `Nc1ccccc1NC(=O)c1ccc(CNC(=O)OCc2cccnc2)cc1` [entinostat], the IC50 in the experiment on normal human hepatocytes is 0.217 µM; in the experiment with HepG2, 0.392 µM; in the experiment on Huh-6, greater than 10 µM; in the experiment with HB-214 it was 1.49 µM.

For `CC(C)n1c(/C=C/C(O)CC(O)CC(=O)O)c(-c2ccc(F)cc2)c2ccccc21` (stereo not drawn) [fluvastatin], the IC50 is greater than 10 µM with HepG2, 4.44 µM in the experiment with Huh-6 and greater than 10 µM in the experiment with HB-214.

Turning to `C=C[C@@]1(C)CC(=O)[C@]2(O)[C@@]3(C)[C@@H](O)CCC(C)(C)[C@@H]3[C@H](O)[C@H](OC(C)=O)[C@@]2(C)O1` [forskolin], the IC50 with normal human hepatocytes, in the experiment on HepG2, in the experiment with Huh-6 and in the experiment with HB-214 was greater than 10 µM throughout.

As to `Nc1nc(O)c2ncn(COC(CO)CO)c2n1` [ganciclovir], the IC50 in the experiment with normal human hepatocytes, in the experiment on HepG2, in the experiment on Huh-6 and in the experiment with HB-214 was greater than 10 µM throughout.

Turning to `CN(C)C(=N)N=C(N)N` [metformin HCL], the IC50 in the experiment on normal human hepatocytes, in the experiment with HepG2, in the experiment on Huh-6 and in the experiment on HB-214 was greater than 10 µM in each case.

Turning to `Cc1[nH]c2ccccc2c1CCNCc1ccc(/C=C/C(=O)NO)cc1` [panobinostat], the IC50 is 0.039 µM in the experiment with normal human hepatocytes, 0.08 µM with HepG2, 1.14 µM with Huh-6 and 0.25 µM with HB-214.

As for `Cc1ccc(Nc2nccc(N(C)c3ccc4c(C)n(C)nc4c3)n2)cc1S(N)(=O)=O` [pazopanib], the half-inhibitory concentration (IC50) in the experiment with HepG2, in the experiment on Huh-6 and in the experiment with HB-214 was greater than 10 µM in each case.

Consider `Nc1nc2[nH]cc(CCc3ccc(C(=O)N[C@@H](CCC(=O)O)C(=O)O)cc3)c2c(=O)[nH]1` [pemetrexed], for which the concentration for half-maximal inhibition (IC50) in the experiment with normal human hepatocytes, in the experiment on HepG2, in the experiment with Huh-6 and with HB-214 was greater than 10 µM throughout.

On to `N#CC[C@H](C1CCCC1)n1cc(-c2ncnc3[nH]ccc23)cn1` [ruxolitinib], for which the IC50 in the experiment on normal human hepatocytes, in the experiment on HepG2, in the experiment on Huh-6 and with HB-214 was greater than 10 µM each time.

With `CO[C@H]1C[C@@H]2CC[C@@H](C)[C@@](O)(O2)C(=O)C(=O)N2CCCC[C@H]2C(=O)O[C@H]([C@H](C)C[C@@H]2CC[C@@H](O)[C@H](OC)C2)CC(=O)[C@H](C)/C=C(\C)[C@@H](O)[C@@H](OC)C(=O)[C@H](C)C[C@H](C)/C=C/C=C/C=C/1C` [sirolimus], the 50% inhibitory concentration (IC50) in the experiment with normal human hepatocytes, with HepG2, in the experiment on Huh-6 and with HB-214 was greater than 10 µM each time.
